Source: patent publication US5929076A, “Cycloalkyl substituted imidazoles” (SmithKline Beecham Corporation, priority 1998, dated 1999)

Tested on: human PGHS-2 protein expression in LPS stimulated human monocytes
Assay: Prostoglandin endoperoxide synthase-2 (PGHS-2) assay
Assay type: cell-based
Conditions: rank order potency similar to that for inhibiting cytokine production
Experimental: The following assay describes a method for determining the inhibitory effects of compounds of Formula (I) on human PGHS-2 protein expression in LPS stimulated human monocytes. Method: Human peripheral blood monocytes were isolated from buffy coats by centrifugation through Ficoll and Percoll gradients. Cells were seeded at 2×10^6 /well in 24 well plates and allowed to adhere for 1 hour in RPMI supplemented with 1% human AB serum, 20 mM L-glutamine, Penicillin-Streptomycin and 10 mM HEPES. Compounds were added at various concentrations and incubated at 37° C. for 10 minutes. LPS was added at 50 ng/well (to induce enzyme expression) and incubated overnight at 37° C. The supernatant was removed and cells washed once in cold PBS. The cells were lysed in 100 μl of cold lysis buffer(50 mM Tris/HCl pH 7.5, 150 mM NaCl, 1% NP40, 0.5% sodium deoxycholate, 0.1% SDS, 300 ug/ml DNAse, 0.1% TRITON X-100, 1 mM PMSF, 1 mM leupeptin, 1 mM pepstatin). The lysate was centrifuged (10,000×g for 10 min. at 4° C.) to remove debris and the soluble fraction was subjected to SDS PAGE. analysis (12% gel). Protein separated on the gel were transferred onto nitrocellulose membrane by electrophoretic means for 2 hours at 60 volts. The membrane was pretreated for one hour in PBS/0.1% Tween 20 with 5% non-fat dry milk. […]

Row | Compound | inhibition of LPS induced PGHS-2 protein expression
1 | Fc1ccc(-c2nc3n(c2-c2ccncc2)CCS3)cc1 [6-(4-Fluorophenyl)-2,3-dihydro-5-(4-pyridinyl)imidazo[2,1-b]thiazole] | active
2 | C[C@@H]1C[C@H]2[C@@H]3CCC4=CC(=O)C=C[C@]4(C)[C@@]3(F)[C@@H](O)C[C@]2(C)[C@@]1(O)C(=O)CO [Dexamethasone] | active
